# From ChEMBL document CHEMBL4265919, “Structural alterations based on naproxen scaffold: Synthesis, evaluation of antitumor activity and COX-2 inhibition, and molecular docking” (Eur J Med Chem, 2018)
# Tests used:
# MDA-MB-231 = experiment: Antiproliferative activity against human MDA231 cells by MTT assay; assay type: functional, cell-based
# HCT-116 = experiment: Antiproliferative activity against human HCT116 cells by MTT assay; assay type: functional, cell-based
# Caco-2 = experiment: Antiproliferative activity against human Caco2 cells by MTT assay; assay type: functional, cell-based
# MCF7 = experiment: Antiproliferative activity against human MCF7 cells by MTT assay; assay type: functional, cell-based
# [1] = target: T1, Prostaglandin G/H synthase 1 (Ovis aries, UniProt P05979); experiment: Inhibition of ovine COX1 using arachidonic acid as substrate incubated for 5 mins followed by substrate addition measured after 2 mins by colorimetric based ELISA
# T1 sequence (P05979 whole entry): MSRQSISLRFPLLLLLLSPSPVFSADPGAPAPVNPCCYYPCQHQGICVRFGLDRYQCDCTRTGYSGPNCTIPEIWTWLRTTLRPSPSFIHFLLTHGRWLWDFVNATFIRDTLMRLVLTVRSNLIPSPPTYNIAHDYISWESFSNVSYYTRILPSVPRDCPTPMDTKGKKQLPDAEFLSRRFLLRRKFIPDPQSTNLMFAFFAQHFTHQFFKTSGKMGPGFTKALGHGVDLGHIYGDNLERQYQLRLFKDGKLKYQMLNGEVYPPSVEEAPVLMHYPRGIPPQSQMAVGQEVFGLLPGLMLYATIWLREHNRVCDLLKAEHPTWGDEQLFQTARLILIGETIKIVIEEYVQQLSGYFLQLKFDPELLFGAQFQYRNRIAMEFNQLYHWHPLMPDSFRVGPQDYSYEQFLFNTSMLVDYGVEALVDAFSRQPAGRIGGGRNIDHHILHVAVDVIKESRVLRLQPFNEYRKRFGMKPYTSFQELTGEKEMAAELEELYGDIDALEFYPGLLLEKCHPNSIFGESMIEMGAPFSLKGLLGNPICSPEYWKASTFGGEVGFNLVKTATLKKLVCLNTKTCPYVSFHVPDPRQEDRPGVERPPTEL
# HeLa = experiment: Antiproliferative activity against human HeLa cells by MTT assay; assay type: functional, cell-based
IC50 (MDA-MB-231) [µM],IC50 (HCT-116) [µM],IC50 (Caco-2) [µM],IC50 (MCF7) [µM],IC50 [1] [µM],IC50 (HeLa) [µM],SMILES
49.2,67.4,81.3,–,–,–,COc1ccc2cc(C(C)c3nnc4n3N=C(c3ccccc3)CS4)ccc2c1 (stereo not drawn)
41.8,60.5,77.7,38.3,> 25,20.7,COc1ccc2cc(C(C)c3n[nH]c(=S)n3N)ccc2c1 (stereo not drawn)
52.8,56.2,63.8,26.7,> 25,30.4,COc1ccc2cc(C(C)C(=O)NN3C(=O)CCC3=O)ccc2c1 (stereo not drawn)
9.65,14.5,18.8,12.1,> 25,13,COc1ccc2cc(C(C)C(=O)NN=C3CCCCC3)ccc2c1 (stereo not drawn)
93.8,> 100,> 100,85.7,–,86.4,COc1ccc2cc(C(C)c3nnc4n3NC(=O)CS4)ccc2c1 (stereo not drawn)
32.7,44.7,46.1,48.2,> 25,59.4,COc1ccc2cc(C(C)C(=O)NN=C3CCCCCC3)ccc2c1 (stereo not drawn)
7.29,10.5,33.9,5.89,> 25,6.15,COc1ccc2cc(C(C)c3nnc(-c4ccc(O)cc4)o3)ccc2c1 (stereo not drawn)
4.83,5.14,13.8,7.74,> 25,9.03,COc1ccc2cc(C(C)c3n[nH]c(=S)n3/N=C/c3ccc(O)cc3)ccc2c1 (stereo not drawn)
66.3,75,> 100,42.1,> 25,35.1,COc1ccc2cc(C(C)c3nnc(-c4ccc([N+](=O)[O-])cc4)o3)ccc2c1 (stereo not drawn)
89.4,> 100,> 100,91.4,–,> 100,COc1ccc2cc(C(C)c3nnc(SCc4ccccc4)o3)ccc2c1 (stereo not drawn)
14.8,19.1,28,61.7,> 25,65.6,COc1ccc2cc(C(C)c3n[nH]c(=S)n3/N=C/c3ccccc3)ccc2c1 (stereo not drawn)
11.1,22.1,39.5,21.9,> 25,15.1,COc1ccc2cc(C(C)C(=O)NN3C(=O)C=CC3=O)ccc2c1 (stereo not drawn)
80.7,> 100,> 100,71.5,–,69.1,COc1ccc2cc(C(C)C(=O)NN=C3CCCC3)ccc2c1 (stereo not drawn)
16.2,28.4,43.9,31.7,> 25,19.4,COc1ccc2cc(C(C)c3nnc(-c4ccc(C)cc4)o3)ccc2c1 (stereo not drawn)
29.5,39.9,73.5,57.2,> 25,26.2,COc1ccc2cc(C(C)c3nnc(SC)o3)ccc2c1 (stereo not drawn)
72,83.6,> 100,68.7,–,51.6,COc1ccc2cc(C(C)C(=O)NN=C3CCN(C)CC3)ccc2c1 (stereo not drawn)
37.2,49.8,58.2,79.3,> 25,78.6,COc1ccc2cc(C(C)C(=O)NN3C(=O)c4ccccc4C3=O)ccc2c1 (stereo not drawn)
23.2,34.3,50.9,47.1,> 25,48.9,COc1ccc2cc(C(C)c3nnc(SC4CCCC4)o3)ccc2c1 (stereo not drawn)
8.14,8.76,16,9.26,> 25,12.1,COc1ccc2cc(C(C)c3n[nH]c(=S)n3/N=C/c3cccc(Br)c3)ccc2c1 (stereo not drawn)
7.5,11.4,7.7,7.1,–,6.2,CN(C)C/C=C/C(=O)Nc1cc2c(Nc3ccc(F)c(Cl)c3)ncnc2cc1O[C@H]1CCOC1 [AFATINIB]
22.8,29.5,42.7,31.3,–,36.1,Cc1ccc(-c2cc(C(F)(F)F)nn2-c2ccc(S(N)(=O)=O)cc2)cc1 [CELECOXIB]

SMILES,IC50 (MDA-MB-231) [µM],IC50 (HCT-116) [µM],IC50 (Caco-2) [µM],IC50 (MCF7) [µM],IC50 [1] [µM],IC50 (HeLa) [µM]
COc1cccc2c1C(=O)c1c(O)c3c(c(O)c1C2=O)C[C@@](O)(C(=O)CO)C[C@@H]3O[C@H]1C[C@H](N)[C@H](O)[C@H](C)O1 [DOXORUBICIN],–,–,26.8,–,–,–
